Measured values: the METLIN SMRT retention time set (Domingo-Almenara et al. 2019)

Experiment: gradient 5% acetonitrile 3 min, to 50% in 2 min, to 85% in 15 min, held 3 min, 100 µL/min
Conditions: column: Zorbax Extend-C18 2.1 x 50 mm; eluents: water / acetonitrile, 0.1% formic acid
In short: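 Retention times come from adduct peaks that were picked computationally and then checked by hand. The standards, pure and pooled in mixtures of ~100 molecules, were run on a Zorbax Extend-C18 column (2.1 × 50 mm, 1.8 μm) at 100 μL/min with water and acetonitrile, each with 0.1% formic acid. Detection was by quadrupole time-of-flight mass spectrometry in positive and negative ionization mode, with a dead volume of 40 μL and a dwell volume of 900 μL.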

| SMILES | RP-LC retention time |
| --- | --- |
| CCn1c(=O)c2ccccc2n(Cc2nc(-c3ccccc3)no2)c1=O | 991 s |
| Cc1cc(C)n(-c2nc(-c3ccc(Cl)cc3)cs2)n1 | 1420 s |
| Cc1cccc(NC(=O)C2CCCN(c3ncnc4onc(-c5ccc(F)cc5)c34)C2)n1 (centres undefined) | 849 s |
| O=C(COCc1nnc(C(=O)Nc2cccc(Cl)c2)s1)NCCc1c[nH]c2ccccc12 | 930 s |
| CC(C)NC(=O)c1ccc(OCC2CCCN(C(=O)Cc3cccc(F)c3)C2)cc1 (centres undefined) | 955 s |
| CC(C)S(=O)(=O)c1cc2c(cc1NC(=O)c1ccc(Cl)cc1)n(C)c(=O)n2C | 936 s |
| O=C(Nc1ccc(Nc2cc(-n3ccnc3)ncn2)cc1)c1c[nH]c2ccccc12 | 562 s |
| COc1ccc(-c2nnc(-c3ccc(-n4ccnc4)nc3)o2)cc1F | 642 s |
| CCNC(=O)N1CCCC1c1cc(C)no1 (centres undefined) | 615 s |
| Cc1ccccc1OCc1nc(CCN(C)C(=O)Cc2cccs2)no1 | 924 s |
| COc1ccc(COC(=O)C2=CN(Cc3ccc(OC)cc3)S(=O)(=O)N=C2C)cc1 | 923 s |
| CCCn1cc(-c2nc(-c3cc(OC)c(OC)c(OC)c3)no2)c(=O)c2ccccc21 | 798 s |
| CCOc1ccc(-c2csc(NC(=O)CCCOc3ccc(CC)cc3)n2)cc1 | 1290 s |
| O=C(CCS(=O)(=O)c1ccccc1)Nc1ccc(-c2ccn[nH]2)cc1 | 648 s |
| O=C(Nc1cc(-c2ccsc2)no1)c1cccc(F)c1 | 951 s |
| CCOC(=O)c1noc2nc(C)nc(Nc3cccc(OC)c3)c12 | 801 s |
| Cc1ccc(C)c(NC(=O)C2CCN(S(C)(=O)=O)c3cc(Cl)ccc3O2)c1 (centres undefined) | 935 s |
| Fc1ccc(C2Cn3nnc(-c4nc(-c5ccccc5Cl)no4)c3CO2)cc1 (centres undefined) | 1170 s |
| C=CCN1CCc2cccc3c2[C@H]1Cc1ccc(O)c(O)c1-3 | 659 s |

| SMILES | RP-LC retention time |
| --- | --- |
| CSc1ccc(CNC(=O)CC2c3ncccc3C(=O)N2c2ccccc2)cc1 (centres undefined) | 752 s |
| CC(C)NC(=O)c1nccnc1NC(=O)c1ccccc1 | 817 s |
| Cc1nn2c(NCc3ccccn3)c3c(nc2c1-c1ccccc1)CCCC3 | 602 s |
| CC(=O)N1CCc2cc(C(=O)NC(C)C)ccc21 | 644 s |
| O=C(NC1CCc2ccccc21)C1CCN(c2ncccc2-c2nc(-c3ccccc3)no2)CC1 (centres undefined) | 1120 s |
| COc1cccc(-n2c(=O)c(C(=O)NCc3cccs3)c(O)c3cccnc32)c1 | 1170 s |
| O=C(c1c[nH]c2ccccc12)N1C[C@@H]2C[C@H]1C[C@@H]2NS(=O)(=O)c1ccccc1 | 679 s |
| O=C(c1c(F)cccc1Cl)N1CCc2nc(-c3ccc(Cl)cc3)ncc2C1 | 1160 s |
| O=C(C1=CN(c2ccccc2F)c2cc(F)ccc2S1(=O)=O)N1CCCCC1 | 848 s |
| O=C(Nc1nc(-c2ccccc2Cl)cs1)c1cccnc1 | 858 s |
| Cc1[nH]c(C(=O)N2CCC(CC(=O)NCCN3CCCCCC3)CC2)c(C)c1C | 626 s |
| Cc1cc(C(=O)NC2CCCCC2)nn1C | 755 s |
| Cc1ccc(C)c(-c2cc3c(=O)n(Cc4nc(-c5cccc(Br)c5)no4)ncn3n2)c1 | 1340 s |
| NS(=O)(=O)c1ccc(NC(=O)Cn2cnc(-c3ccccc3)cc2=O)cc1 | 638 s |
| O=C(Nc1nccn(-c2ccc(F)c(Cl)c2)c1=O)c1ccc2c(c1)OCO2 | 802 s |
| CNC(=O)c1cccc(-c2noc(C)n2)c1 | 644 s |
| O=C1CCCC(=O)C1CC1C(=O)CCCC1=O | 836 s |
| O=C(NCCn1c(=O)n(Cc2ccc(F)cc2)c2cccnc21)C1CC1 | 711 s |
| CNC(=O)C1CCCN(c2nc3ncn(CC(=O)Nc4c(C)cc(C)cc4C)c(=O)c3s2)C1 (centres undefined) | 661 s |

More lines, now with the values ahead:

| RP-LC retention time | SMILES |
| --- | --- |
| 770 s | N#Cc1nc(-c2ccco2)oc1N1CCN(C(=O)c2ccccc2F)CC1 |
| 657 s | Cn1cc(-c2cc3n(n2)CCC(=O)N3CC(=O)NCCCN2CCCC2=O)c2ccccc21 |
| 1210 s | COC(=O)c1ccc2c(=O)n(-c3cccc(F)c3)c(N3CCCCCC3)nc2c1 |
| 898 s | Cc1nn2c(CNS(=O)(=O)c3ccc(F)c(C)c3)c(-c3ccccc3)nc2s1 |
| 953 s | Cc1ccc(NS(=O)(=O)c2cn(CC(C)C)c3ncccc23)cc1F |
| 855 s | CC1CCCCN1S(=O)(=O)c1ccc2c(c1)CCC(=O)N2CC(=O)NCc1ccc(F)cc1 (centres undefined) |
| 728 s | Cc1cc(F)ccc1NS(=O)(=O)c1cc(-c2[nH]ncc2C(=O)N2CCCC2)oc1C |
| 680 s | Cc1ccc(C2=NC3(CCN(C(=O)c4cnccn4)CC3)ON2)cc1 |
| 682 s | O=C(Cn1c(C(F)(F)F)nc2cc3c(cc21)OCCO3)N1CCOCC1 |
| 777 s | CCOC(=O)C1CCN(c2cc3c(cc2NC(=O)NC2CCCC2)n(C)c(=O)n3C)CC1 |
| 774 s | O=S(=O)(c1cc(-c2nnc(C3CC3)o2)co1)N1CCCC1 |
| 731 s | CC(C)N1CCn2c(nc3cc(C(=O)NCc4ccccc4Br)ccc32)C1=O |
| 818 s | CC(C)n1c(N2CCN(C(=O)Cc3ccc(F)cc3)CC2)cc(=O)n(C(C)C)c1=O |
| 1100 s | Cc1cccc(Sc2nccnc2N2CCC(C(=O)NCCC(C)C)CC2)c1 |
| 814 s | CCn1cc(S(=O)(=O)Nc2ccc(F)cc2F)c2cccnc21 |
| 879 s | O=C(C1CC1)N1CCc2sc(S(=O)(=O)Nc3cccc(Cl)c3)cc2C1 |
| 602 s | CC(=O)N1CCC(C(=O)N2CCCn3cc(-c4ccccc4)nc32)CC1 |
| 726 s | Cn1ncc(N2CCCC(C(=O)NCc3ccc(F)c(Cl)c3)C2)cc1=O (centres undefined) |
| 677 s | CCn1c(C(=O)NCCCN2CCCC2=O)c(N2CCCC2=O)c2cc(OC)ccc21 |
| 674 s | O=C(c1cc(-c2ccc3c(c2)OCO3)nc2ccccc12)N1CCN(c2ccccn2)CC1 |
| 1020 s | CC1CCC(NC(=O)c2nnc(-c3ccc(S(=O)(=O)N4CCCC4)cc3)o2)CC1 (centres undefined) |
| 572 s | COCCNC(=O)CCC1CCN(c2cc(NC3CC3)ncn2)CC1 |
| 610 s | CCc1ccc(S(=O)(=O)Nc2ccc3nc(N4CCN(CC)CC4)cc(C(=O)O)c3c2)cc1 |
| 1060 s | CCc1ccc(N2CC(c3noc(-c4ccc5c(c4)OCO5)n3)CC2=O)cc1 (centres undefined) |
| 662 s | CCc1nc(-c2csc(S(=O)(=O)N3CCC(C(=O)NCc4ccc(C)cc4)CC3)c2)no1 |
| 620 s | Cc1cc(NC(=O)CSc2ccc3nnc(-c4cccs4)n3n2)no1 |

| RP-LC retention time | SMILES |
| --- | --- |
| 918 s | O=S(=O)(NCC1(c2ccc(F)cc2)CC1)c1ccc2c(c1)OCCO2 |
| 757 s | COCCNc1c(-c2ccc(F)cc2)nc2sc(C(=O)N3CCCC3)c(C)n12 |
| 1120 s | Cc1ccccc1-c1noc(CN2N=NC3C(=O)N(c4ccc5c(c4)CCC5)C(=O)C32)n1 (centres undefined) |
| 559 s | O=C(c1cccnc1)N1CCCN(c2nnc3ccc(Cl)cn23)CC1 |
| 742 s | Cc1cn(C)c(CC(=O)N2CCc3ccccc32)c1C(=O)O |
| 1080 s | O=C(Nc1cc(-c2cccc(Cl)c2)no1)C1CCCN(c2ncnc3c2nc2n3CCCCC2)C1 (centres undefined) |
| 804 s | O=C(Cc1cccs1)N1CCN(c2ccc(=O)n(-c3ccc(Cl)cc3)n2)CC1 |
| 584 s | c1cc(-c2cnn3cc(-c4ccc(OCCN5CCCCC5)cc4)cnc23)ccn1 |
| 827 s | CCc1ccc(CNC(=O)C2(c3ccc(NC(C)=O)cc3)CCC2)cc1 |
| 997 s | COc1ccc(C2(C(=O)N3CCC(OCCOc4ccc(F)cc4)CC3)CC2)cc1 |
| 974 s | Cc1ccc(C)c(Cn2nc3c(S(=O)(=O)N4CCCCC4)cccn3c2=O)c1 |
| 629 s | Cn1cnnc1-c1nn(C)c2c1CN(C(=O)CCc1cc(Cl)no1)CC2 |
| 553 s | CCOC(=O)CC1(NC(=O)N2CCC(c3nc4ccncc4n3C)C2)CCCCC1 (centres undefined) |
| 714 s | CCc1cc(=O)n(CC(=O)Nc2ccc(F)cc2)c(N2CCOCC2)n1 |
| 846 s | COc1ccc(NC(=O)N2CCCC(C)(C(=O)NCc3ccccc3)C2)c(OC)c1 (centres undefined) |
| 676 s | Cc1ccc(CNC(=O)N2CCCC(Cn3cnc4cccnc43)C2)cc1 (centres undefined) |
| 973 s | CCOC(=O)C1CCN(C(=O)c2cc(-c3ccc(C)c(C)c3)[nH]c2C)CC1 |
| 906 s | CCCn1nccc1-c1csc(S(=O)(=O)N2CCC3(CC2)OCCO3)c1 |
| 1060 s | CCOc1cccc(-c2noc(Cn3c(=O)n(-c4cccc(C)c4)c(=O)c4sccc43)n2)c1 |
| 992 s | Cc1ccc2c(c1)N(Cc1nc(C3CC3)no1)N=C(C(=O)N1CCC(C)CC1)S2(=O)=O |
| 709 s | CCC(=O)N1CCCC1c1nc2ccccc2n1CC(=O)N(c1ccccc1)C(C)C (centres undefined) |
| 985 s | Cc1cccc(C(=O)Nc2nc(-c3ccc4c(c3)N(C)C(=O)CO4)cs2)c1 |
| 707 s | CCN1CCn2c(nc3cc(C(=O)NCc4ccccc4Br)ccc32)C1=O |
| 810 s | COCCNC(=O)C1CCCN(c2nccnc2Sc2ccccc2)C1 (centres undefined) |
| 924 s | CCCNC(=O)N1CCCN(Cc2ccc3c(c2)OCO3)c2ccccc21 |
